Data set [1] has as its target Toll-like receptor 2 (Homo sapiens, UniProt O60603). Nature of the data set: Antagonist activity at human TLR2 in HEK-Blue hTLR2 cells assessed as inhibition of Pam3CSK4-induced receptor activation preincubated with Pam3CSK4 followed by compound addition and measured 24 hrs by Quanti-Blue based SEAP reporter gene assay. Type of data set: cell-based. Background: Reporter assays use an easily measured gene product as a stand-in for the process of interest.

Data set [2] addresses Toll-like receptor 4 (Homo sapiens, UniProt O00206). Nature of the data set: Antagonist activity at human TLR4 in HEK-Blue hTLR4 cells assessed as inhibition of LPS-induced receptor activation preincubated with LPS followed by compound addition and measured 24 hrs by Quanti-Blue based SEAP reporter gene assay. In kind it is cell-based.
Data set [3] is described as follows: Cytotoxicity against HEK-Blue hTLR2 cells assessed as lethal dose measured after 24 hrs by CCK-8 assay. In kind it is toxicity, cell-based. As to conditions: human, read-out: LD50. Background: Formazan colour is commonly taken as a measure of viable cells.
Data set [4] is described as follows: Cytotoxicity against HEK-Blue hTLR4 cells assessed as lethal dose measured after 24 hrs by CCK-8 assay. Conditions: human, read-out: LD50. In kind it is toxicity, cell-based.
Data set [5] is described as follows: Cytotoxicity against mouse RAW264.7 cells assessed as lethal dose measured after 24 hrs by CCK-8 assay. Type of data set: toxicity, cell-based. As to conditions: read-out: LD50.

Sequence of Toll-like receptor 2 (O60603 whole entry): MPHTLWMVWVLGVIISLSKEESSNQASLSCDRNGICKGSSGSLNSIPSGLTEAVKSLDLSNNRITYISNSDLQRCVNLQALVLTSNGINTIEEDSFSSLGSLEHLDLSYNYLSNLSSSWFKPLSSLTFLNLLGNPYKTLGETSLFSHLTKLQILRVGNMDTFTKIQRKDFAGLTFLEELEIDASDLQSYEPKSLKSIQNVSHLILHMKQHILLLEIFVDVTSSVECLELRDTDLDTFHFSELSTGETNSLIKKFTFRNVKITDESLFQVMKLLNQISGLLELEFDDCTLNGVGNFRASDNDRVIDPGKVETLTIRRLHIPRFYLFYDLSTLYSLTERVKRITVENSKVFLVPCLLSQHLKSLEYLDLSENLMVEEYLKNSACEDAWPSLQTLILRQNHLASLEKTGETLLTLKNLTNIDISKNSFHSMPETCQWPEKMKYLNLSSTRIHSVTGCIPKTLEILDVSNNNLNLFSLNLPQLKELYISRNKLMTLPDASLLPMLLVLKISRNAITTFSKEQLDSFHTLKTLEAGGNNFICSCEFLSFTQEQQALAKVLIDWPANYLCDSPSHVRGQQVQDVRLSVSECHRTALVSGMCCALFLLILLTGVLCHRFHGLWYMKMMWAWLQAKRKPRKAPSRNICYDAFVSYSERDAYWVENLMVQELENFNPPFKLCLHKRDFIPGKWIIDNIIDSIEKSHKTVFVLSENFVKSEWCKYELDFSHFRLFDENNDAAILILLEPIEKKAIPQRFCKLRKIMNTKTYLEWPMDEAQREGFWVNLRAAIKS
Sequence of Toll-like receptor 4 (O00206 whole entry): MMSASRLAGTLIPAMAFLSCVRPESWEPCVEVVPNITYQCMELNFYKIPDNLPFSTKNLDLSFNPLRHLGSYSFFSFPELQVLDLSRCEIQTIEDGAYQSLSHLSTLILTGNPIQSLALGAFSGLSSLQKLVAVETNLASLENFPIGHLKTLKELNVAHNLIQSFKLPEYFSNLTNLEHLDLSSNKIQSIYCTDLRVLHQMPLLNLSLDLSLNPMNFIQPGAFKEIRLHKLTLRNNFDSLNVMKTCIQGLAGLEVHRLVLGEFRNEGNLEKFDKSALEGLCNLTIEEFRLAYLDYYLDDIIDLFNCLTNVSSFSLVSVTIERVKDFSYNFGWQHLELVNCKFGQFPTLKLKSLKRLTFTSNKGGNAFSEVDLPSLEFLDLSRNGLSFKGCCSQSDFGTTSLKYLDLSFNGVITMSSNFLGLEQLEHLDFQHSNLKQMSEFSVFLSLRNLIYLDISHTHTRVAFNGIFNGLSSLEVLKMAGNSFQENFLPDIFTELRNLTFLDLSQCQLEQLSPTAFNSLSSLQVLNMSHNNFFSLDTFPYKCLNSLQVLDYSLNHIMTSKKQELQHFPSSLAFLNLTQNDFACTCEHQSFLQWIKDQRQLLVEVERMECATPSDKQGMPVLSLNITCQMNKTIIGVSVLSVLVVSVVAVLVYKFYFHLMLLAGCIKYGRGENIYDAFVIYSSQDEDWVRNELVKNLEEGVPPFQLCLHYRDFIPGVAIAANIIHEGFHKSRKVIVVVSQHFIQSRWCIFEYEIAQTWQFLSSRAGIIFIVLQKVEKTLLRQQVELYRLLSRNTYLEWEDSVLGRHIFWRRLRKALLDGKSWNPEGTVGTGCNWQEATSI

With `O=[N+]([O-])/C=C/c1cccc(OCc2ccc(Cl)cc2)c1`, the IC50 (as a rule, the concentration at which inhibition is half-maximal) came to 4.3 µM in data set [1] and 4.8 µM in data set [2].

On to `O=[N+]([O-])/C=C/c1cccc(OCc2ccc(F)cc2)c1`, for which the IC50 was 5.5 µM in data set [1] and 4.2 µM in data set [2].

For `O=[N+]([O-])/C=C/c1cccc(OCc2ccccc2)c1`, the IC50 in data set [1] turned out to be 3.3 µM; in data set [2], 3.5 µM.

For the compound `CCOC(=O)c1ccc(COc2cccc(/C=C/[N+](=O)[O-])c2)nc1`, the IC50 amounted to 12.3 µM in data set [1] and 9.2 µM in data set [2].

`O=[N+]([O-])/C=C/c1ccc(Oc2ccccc2)cc1`: the IC50 in data set [2] was 6.5 µM.

`O=[N+]([O-])/C=C/c1ccccc1Oc1ccccc1`: the IC50 in data set [1] worked out at 4.4 µM.

Take `O=C(Nc1ccccn1)c1cccc(/C=C/[N+](=O)[O-])c1`: the IC50 in data set [2] came out at 3.6 µM.

Turning to `O=[N+]([O-])/C=C/c1cccc(Nc2ncccn2)c1`, the IC50 in data set [1] worked out at 2.6 µM; in data set [2], 2.8 µM.

`O=[N+]([O-])/C=C/c1cccc(Oc2ccccn2)c1`: the figures for the IC50 in data set [1] and in data set [2] were 1.2 µM and 1 µM, respectively.

In the case of `O=[N+]([O-])/C=C/c1cccc(Oc2ncccn2)c1`, the IC50 in data set [2] was found to be 6.2 µM.

As for `CN(C)c1ccc(/C=C/[N+](=O)[O-])cc1Nc1ccccn1`, the IC50 in data set [2] came to 3.7 µM.

Consider `O=[N+]([O-])/C=C/c1cccc(-c2ccccn2)c1`, for which the IC50 in data set [2] was determined as 0.28 µM.

As for `O=[N+]([O-])/C=C/c1cccc(OCC2CCCCC2)c1`, the IC50 in data set [2] amounted to 5.9 µM.

Turning to `O=[N+]([O-])/C=C/c1cccc(OCc2ccccn2)c1`, the IC50 in data set [1] is 1.1 µM; in data set [2], 1.4 µM.

For the compound `CCCOC(=O)c1ccc(COc2cccc(/C=C/[N+](=O)[O-])c2)nc1`, the IC50 in data set [2] came out at 5.9 µM.

Consider `O=[N+]([O-])/C=C/c1cccc(Oc2nccs2)c1`, for which, in data set [2], the IC50 amounted to 2.4 µM.

On to `CCCCOc1cccc(/C=C/[N+](=O)[O-])c1`, for which the IC50 in data set [1] was 3.9 µM; in data set [2], 5.8 µM.

In the case of `O=[N+]([O-])/C=C/c1cccc(OCC2CC2)c1`, the figures for the 50% inhibitory concentration (IC50) in data set [1] and in data set [2] were 2.4 µM and 2.5 µM, respectively.

Turning to `COc1ccc(COc2cccc(/C=C/[N+](=O)[O-])c2)cc1`, the IC50 in data set [1] turned out to be 4.4 µM; in data set [2] it was 5.6 µM.

As to `CCCCOC(=O)c1ccc(COc2cccc(/C=C/[N+](=O)[O-])c2)nc1`, the IC50 worked out at 3.1 µM in data set [1] and 3.7 µM in data set [2].

For the compound `O=[N+]([O-])/C=C/c1cccc(Nc2ccccn2)c1`, in data set [2], the IC50 stood at 0.46 µM. The CC50 at 24 h in data set [3], in data set [4] and in data set [5] was 28 µM each time.

On to `O=[N+]([O-])/C=C/c1cccc(Nc2cccnc2)c1`, for which, in data set [2], the IC50 stood at 3.1 µM.

On to `O=[N+]([O-])/C=C/c1cccc(OCc2ccncc2)c1`, for which the results for the IC50 in data set [1] and in data set [2] were 3.2 µM and 3.9 µM, respectively.

As for `C/C(=C\[N+](=O)[O-])c1cccc(Oc2ccccc2)c1`, the IC50 in data set [2] turned out to be 6.3 µM.

For the compound `O=[N+]([O-])/C=C/c1cccc(Oc2ccccc2)c1`, the IC50 in data set [1] turned out to be 3.4 µM; in data set [2], 4.3 µM.

Consider `O=[N+]([O-])/C=C/c1cccc(OCc2ccc3ccccc3c2)c1`, for which the figures for the IC50 in data set [1] and in data set [2] were 5 µM and 4.4 µM, respectively.

These data come from ChEMBL document CHEMBL5107941, “Design and optimisation of a small-molecule TLR2/4 antagonist for anti-tumour therapy” (RSC Med Chem, 2021).
